Assay [1] concerns the target T1, PDZ2 domain of human tyrosine phosphatase 1E (hPTP1E) (Homo sapiens, UniProt Q12923).
T1 construct: the constructs used for the PDZ2 domain of human tyrosine phosphatase 1E; polyhistidine (N); made in house; host or cells: Escherichia coli BL21 (DE3)
T1 sequence (Q12923 1368-1452 limits assumed): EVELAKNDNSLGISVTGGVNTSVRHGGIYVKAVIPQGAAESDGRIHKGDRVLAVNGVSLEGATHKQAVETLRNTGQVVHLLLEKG
The assay can be described thus: Competition CIDNP-KD assay with photo-CIDNP-active reporter peptide. Format: binding. The settings on record: reporter WVSAV 20 μM (KD,R 170 μM), 5 μM PDZ2; 1000 ms irradiation, single scan; read-out: Competition CIDNP-KD (KD,C), Hβ of reporter WVSAV. An excerpt:
Photo-CIDNP hyperpolarization is limited to a particular chemical space of ligands that contain heteroaromatics and heterosubstituted aromatic rings.[24],[29] To address the challenge of limited chemical space, we extend CIDNP-KD to measure the affinity of nonpolarizable ligands through competition with a polarizable reporter ligand R, whose affinity KD,R is known as depicted in Scheme 2. By adding a competitor C, the concentration and photo-CIDNP signal of the reporter ligand R* will increase, indicating the reduced amount of the complex PR* and, by extension, PR.[30]
To calculate the concentration of the ligand–protein complex in the presence of the binding competitor, the ratio of the amplification factors in the presence and absence of the competitor [drawing 6] […]
These competitor ligands lack a tryptophan residue, whereas the reporter ligands WVSAV and WQVSAV are photo-CIDNP-active due to the tryptophan tag. The hyperpolarized signal of WVSAV or WQVSAV in the presence of the PDZ2 domain was measured for increasing concentrations of the peptides QVSAV or ENEQVSAV, respectively. […]
Figure 3 KD determination of nonphoto-CIDNP-active peptides binding to a PDZ2 domain. […] The bound reporter population is plotted, calculated from the hyperpolarized tryptophan Hβ using eq 7. […] Each data point is measured with a single-scan experiment with a laser irradiation duration of (A) 1000 ms or (B) 2000 ms. […]

The target of assay [2] is T1, PDZ2 domain of human tyrosine phosphatase 1E (hPTP1E). The assay can be described thus: 2D [1H,15N]-HSQC chemical shift perturbation titration. Format: binding. The settings on record: 30 μM 15N PDZ2, pH 6.8, 298 K. On the procedure:
We compared the affinities of the peptides obtained via CIDNP-KD with the state-of-the-art 2D [^1H, ^15N]-HSQC titration experiments measured with 30 μM PDZ2 (Figure S3).
Expression and purification were carried out as in previously reported procedures. In short, expression in Escherichia coli cells (BL21 (DE3)) and purification via Ni-NTA chromatography as the constructs used for the PDZ2 domain of human tyrosine phosphatase 1E and human PIN1 both contained N-terminal polyhistidine tags. Both protein constructs were measured in an NMR buffer consisting of 50 mM NaCl, 20 mM KPO4, and 10% D2O at pH 6.8. For the control [^1H, ^15N]-HSQC experiments, the PDZ2 domain was expressed in ^15N-enriched minimal medium.[34],[43]
All photo-CIDNP and STD-NMR experiments were recorded at 298 K on a Bruker Avance III HD 600 MHz spectrometer equipped with a cryoprobe. The [^15N, ^1H] – HSQC titration experiments of the PDZ2 domain were performed also at 298 K on another Bruker Avance IIII HD 600 MHz spectrometer equipped with a cryoprobe and SampleJet.
Peak picking was performed with the maximal peak picking tool of Mnova software. Plotting, fitting, and data analysis was done in RStudio with the workflow described above. The [^15N, ^1H]-HSQC reference affinities were analyzed with CCPNMR3.1.[62] The backbone assignment was taken from BMRB 34688.
Fig. S3: 2D [15N, 1H]-HSQC titration of peptides to hPDZ2 domain. The 2D [ 15N, 1H]-
HSQC spectra of the titration series in presence of 30 µM hPDZ2 domain and the
corresponding observed chemical shift difference of A74 plotted versus the peptide
(1 picture or pasted object on this page, not shown here)

Residues, ends and D or L forms follow the SMILES beside them.

As to `CC(C)[C@H](NC(=O)[C@H](C)NC(=O)[C@H](CO)NC(=O)[C@@H](NC(=O)[C@@H](N)CCC(N)=O)C(C)C)C(=O)O` [QVSAV] (H-QVSAV-OH), the Kd in assay [1] is 580 ± 30 µM; in assay [2] (15N–1H moiety of A74, read-out: [1H,15N]-HSQC–CSP KD, NH of A74), 155 ± 10 µM; in assay [2] (range over residues, read-out: [1H,15N]-HSQC–CSP KD range of all residues showing chemical shift perturbation), 90 to 750 µM.
